Data reported in US20220177587A1, “METHODS AND USES OF VARIANT CD80 FUSION PROTEINS AND RELATED CONSTRUCTS” (Alpine Immune Sciences, Inc., priority 2018, published 2022).

Key:
[1] = tested on: huPD-L1-expressing MC38 tumors; test: huPD-L1 MC38 tumor model, IP or IT delivery; assay type: in vivo, mouse
Method: The MC38 cell line was transduced with human PD-L1 (huPD-L1) Subconfluent cells (˜80% confluent) were harvested on the day of implantation (study day 0), washed twice and brought to a final concentration of 15×10^6 cells/mL in DPBS. Female C57BL/6NJ mice (Jackson Labs, USA) were implanted subcutaneously with approximately 1.5×10^6 cells (0.1 mL) in the right mid-flank region.
On day 7, mice were randomized into six groups, with each group having a similar mean tumor volume (46.6 mm^3).
Tumor volume was measured as described in Example 21 to assess anti-tumor activity. Median tumor growth curves among individual treated mice over time were plotted.
On day 11 post-tumor cell implant and prior to dosing of test articles, five mice from each of Group 1-4 and Group 6 were sacrificed, and the tumors were harvested, weighed and processed for ex vivo tumor analysis. The MC38 cells at time of implant and tumors harvested from a subset of mice on day 11 by enzymatic digestion were evaluated for expression of huPD-L1 or human IgG (to detect Fc of cell-bound test molecules) by flow cytometry. The percent positive and median fluorescent intensity (MFI) of huPD-L1 and huIgG were quantified on the CD45-negative subset of tumor cells.
Tumors at day 11 were also evaluated for CD8+ T cells and for antigen-specific CD8+ T cells within the CD3+ cell population. p15E is an MHC class I restricted T cell antigen expressed in the MC38 tumor cell lines derived from C57BL/6 mice. A mouse MHC class I p15E tetramer labeled with PE (MBL International Corp.) was used to detect the p15E-MHC class I restricted T cell receptor.

[2] = target: huCTLA4 (Homo sapiens, UniProt P16410); test: Antagonism of CD80/CTLA-4 binding on CHO cells expressing CTLA-4; design: Full-length mammalian surface expression constructs for each of human CTLA-4, PD-L1, and CD28; details: 25 nM fluorochrome-conjugated wild-type CD80-Fc; FIG. 21
Method: After washing, cells were incubated with 25 nM fluorochrome-conjugated wild-type CD80-Fc. Bound fluorescent competitor protein was detected and measured by flow cytometry.
The multivalent variant CD80 IgSF domain fusion proteins were assessed to test for blocking of the PD-L1/PD-1 and CTLA-4/CD80 interaction performed substantially as described in Example 15. CHO/OKT3/PD-L1 and CHO/CTLA-4 cells were counted and plated at 100,000 cells/well and then incubated with fluorescently conjugated PD-1-Fc and CD80-Fc. Exemplary multivalent variant CD80 IgSF domain fusion proteins were incubated with the cells for 30 minutes. […] Cells were washed and incubated with 100 nM fluorescently conjugated PD-1-Fc and CD80-Fc competitor for 30 minutes. Cells were then washed and samples were acquired on a flow cytometer and MFIs of the fluorescently labeled molecules were determined.

Sequence of huCTLA4 (P16410 36-223): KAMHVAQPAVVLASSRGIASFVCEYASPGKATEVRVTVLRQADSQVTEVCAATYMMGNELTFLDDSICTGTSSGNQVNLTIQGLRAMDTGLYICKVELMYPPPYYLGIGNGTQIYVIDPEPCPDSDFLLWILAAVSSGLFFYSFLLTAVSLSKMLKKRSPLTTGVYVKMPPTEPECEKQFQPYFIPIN

Which results are given for “H18Y/A26E/E35D/M47L/V68M/A71G/D90G: variant CD80 IgV-Fc (inert), IgV SEQ ID NO:491”?
percent of p15E-specific CD8+ T cells in tumors ([1]; 500 or 1500 μg IP or 100 μg IT, day 11): significantly greater percent of p15E-specific CD8+ T cells as compared to Fc control-treated mice; anti-tumor growth activity ([1]; IT injection 100 μg on days 8, 11 and 14): substantial anti-tumor growth activity; anti-tumor activity (tumor volume) ([1]; single IP injection 100, 500, 1500 μg): dose-dependent increase in anti-tumor activity compared to Fc control treatment; antagonism of binding of CD80 to CTLA-4 [2]: antagonized the binding of CD80 to CTLA-4
